This is an account of results in patent publication US8551988B2, “Benzimidazole derivatives: preparation and pharmaceutical applications” (Mei Pharma, Inc., priority 2003, dated 2013).

Experiment [1] has as its target HDAC1 enzyme (recombinant GST-HDAC1) (Homo sapiens (Human), UniProt Q13547). In words: In vitro HDAC assay (BIOMOL fluorescent-based HDAC activity assay), HDAC1. The experiment is classed as biochemical.
Experimental: (§1) The assay has been carried out in 96 well format and the BIOMOL fluorescent-based HDAC activity assay has been applied. […] Flur de lys Developer was added and the reaction was incubated for 10 min. Briefly, deacetylation of the substrate sensitizes it to the developer, which then generates a fluorophore (symbol). The fluorophore is excited with 360 nm light and the emitted light (460 nm) is detected on a fluorometric plate reader (Tecan Ultra Microplate detection system, Tecan Group Ltd.).
(§2) The analytical software, Prism 3.0 has been used to generate IC50 from a series of data.
Experiment [2] concerns the target HDAC8 enzyme (recombinant GST-HDAC8) (Homo sapiens (Human), UniProt Q9BY41). Briefly: In vitro HDAC assay (BIOMOL fluorescent-based HDAC activity assay), HDAC8. The experiment is classed as biochemical.
Experimental: as §1, §2
Setting [3] is: read-out: HDAC1 Enzyme Activity IC50.
The mark [4] stands for this setting: read-out: HDAC8 Enzyme Activity IC50.
Setting [5] is: Free base, read-out: IC50 (HDAC1).
Where [6] appears, read: Free base, read-out: IC50 (HDAC8).

Each structure is given as a SMILES string. Where two headings read alike, the source gives them in different places.

Sequence of HDAC8 enzyme (recombinant GST-HDAC8) (Q9BY41 whole entry): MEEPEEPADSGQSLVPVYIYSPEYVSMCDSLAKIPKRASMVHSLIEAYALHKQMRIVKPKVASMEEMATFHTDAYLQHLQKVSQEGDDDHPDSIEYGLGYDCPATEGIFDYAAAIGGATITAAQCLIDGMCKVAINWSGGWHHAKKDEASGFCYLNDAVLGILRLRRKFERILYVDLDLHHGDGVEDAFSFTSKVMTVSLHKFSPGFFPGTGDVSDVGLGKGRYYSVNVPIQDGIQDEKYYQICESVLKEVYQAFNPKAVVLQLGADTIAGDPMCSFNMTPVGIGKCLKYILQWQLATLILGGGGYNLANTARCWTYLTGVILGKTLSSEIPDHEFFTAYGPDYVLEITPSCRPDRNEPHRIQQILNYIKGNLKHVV
Sequence of HDAC1 enzyme (recombinant GST-HDAC1) (Q13547 whole entry): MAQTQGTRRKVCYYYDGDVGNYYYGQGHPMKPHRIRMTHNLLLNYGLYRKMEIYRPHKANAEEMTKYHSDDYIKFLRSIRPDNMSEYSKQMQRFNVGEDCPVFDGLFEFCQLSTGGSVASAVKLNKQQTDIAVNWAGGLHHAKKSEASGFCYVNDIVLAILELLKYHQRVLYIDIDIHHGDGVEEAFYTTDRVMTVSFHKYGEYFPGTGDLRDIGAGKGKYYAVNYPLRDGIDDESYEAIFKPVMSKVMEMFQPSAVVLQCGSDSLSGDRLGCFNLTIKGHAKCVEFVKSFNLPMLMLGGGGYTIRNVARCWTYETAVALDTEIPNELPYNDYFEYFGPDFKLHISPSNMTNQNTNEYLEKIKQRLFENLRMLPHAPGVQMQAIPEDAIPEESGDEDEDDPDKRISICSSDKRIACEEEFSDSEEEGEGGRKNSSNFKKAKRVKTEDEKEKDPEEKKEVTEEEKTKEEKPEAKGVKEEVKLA

With `O=C(/C=C/c1ccc2c(c1)ncn2CCc1ccccn1)NO` [Compound 42, N-Hydroxy-3-[1-(2-pyridin-2-yl-ethyl)-1H-benzimidazol-5-yl]-acrylamide], the values for the IC50 in experiment [1] (setting [3]) and in experiment [2] (setting [4]) were 479 nM and 237 nM, respectively.

As for `O=C(/C=C/c1ccc2c(c1)nc(COCc1ccccc1)n2CCCO)NO` [Compound 19], the values for the IC50 in experiment [1] (setting [3]) and in experiment [2] (setting [4]) were 165 nM and 145 nM, respectively.

With `O=C(/C=C/c1ccc2c(c1)nc(CCc1ccccc1)n2Cc1ccccc1)NO` [Compound 33, N-Hydroxy-3-(1-Benzyl-2-phenethyl-1H-benzimidazol-5-yl}-acrylamide], the half-inhibitory concentration (IC50) (as a rule, the concentration that inhibits the measured activity by half) in experiment [1] (setting [3]) was found to be 449 nM; in experiment [2] (setting [4]) it was 1450 nM.

As to `O=C(/C=C/c1ccc2c(c1)nc(-c1ccccn1)n2CC(O)CO)NO` (centres unmarked) [Compound 9, N-Hydroxy-3-[1-(2,3-hydroxy-propyl)-2-(2-pyridyl)-1H-benzimidazol-5-yl]-acrylamide], the results for the IC50 in experiment [1] (setting [3]) and in experiment [2] (setting [4]) were 1340 nM and 344 nM, respectively.

As to `CC(Cc1nc2cc(/C=C/C(=O)NO)ccc2n1CCCO)c1ccccc1` (centres unmarked) [Compound 1, N-Hydroxy-3-[1-(3-hydroxy-propyl)-2-(2-phenyl-propyl)-1H-benzimidazol-5-yl]-acrylamide], the IC50 turned out to be 51 nM in experiment [1] (setting [3]) and 119 nM in experiment [2] (setting [4]).

Turning to `CCN(CC)CCn1c(CCc2ccccc2)nc2cc(/C=C/C(=O)NO)ccc21` [Compound 66, N-Hydroxy-3-[1-(2-diethylamino-ethyl)-2-phenethyl-1H-benzimidazol-5-yl]-acrylamide], the figures for the IC50 in experiment [1] (setting [3]) and in experiment [2] (setting [4]) were 72 nM and 255 nM, respectively.

For `O=C(/C=C/c1ccc2c(c1)nc(-c1ccsc1)n2CCCO)NO` [Compound 20, N-Hydroxy-3-[1-(3-hydroxy-propyl)-2-thiophen-3-yl-1H-benzimidazol-5-yl]-acrylamide], the IC50 in experiment [1] (setting [3]) is 1910 nM; in experiment [2] (setting [4]), 537 nM.

In the case of `CCCCCCCCc1nc2cc(/C=C/C(=O)NO)ccc2n1CCCO` [Compound 23, N-Hydroxy-3-[1-(3-hydroxy-propyl)-2-octyl-1H-benzimidazol-5-yl]-acrylamide], the IC50 came out at 529 nM in experiment [1] (setting [3]) and 402 nM in experiment [2] (setting [4]).

For the compound `COc1cc(Cn2c(CCc3ccccc3)nc3cc(/C=C/C(=O)NO)ccc32)cc(OC)c1OC` [Compound 2, N-Hydroxy-3-[1-(3,4,5-trimethoxybenzyl)-2-(2-phenyl-ethyl)-1H-benzimidazol-5-yl]-acrylamide], the half-inhibitory concentration (IC50) in experiment [1] (setting [5]) was 43 nM; in experiment [1] (Salt of CF3COOH, read-out: IC50 (HDAC1)), 49 nM; in experiment [1] (setting [3]) it was 26 nM; in experiment [2] (setting [6]) it was 267 nM; in experiment [2] (setting [4]) it was 355 nM.

With `CN(C)CC(C)(C)Cn1c(CCc2ccccc2)nc2cc(/C=C/C(=O)NO)ccc21` [Compound 17, N-Hydroxy-3-[1-(3-Dimethylamino-2,2-dimethyl-propyl)-2-phenethyl-1H-benzimidazol-5-yl]-acrylamide], the IC50 was 29 nM in experiment [1] (setting [5]); 44 nM in experiment [1] (Salt of HCl, read-out: IC50 (HDAC1)); 51 nM in experiment [1] (Salt of Methane sulfonic acid, read-out: IC50 (HDAC1)); 353 nM in experiment [2] (setting [6]).

For `O=C(/C=C/c1ccc2c(c1)nc(CCc1ccccc1)n2CCN1CCCCC1)NO` [Compound 67, N-Hydroxy-3-[2-phenethyl-1-(piperidin-1-yl-ethyl)-1H-benzimidazol-5-yl]-acrylamide], the figures for the IC50 in experiment [1] (setting [5]) and in experiment [2] (setting [6]) were 37 nM and 254 nM, respectively.

With `O=C(/C=C/c1ccc2c(c1)nc(CCc1ccccc1)n2CCCN1CCCC1=O)NO` [Compound 30, N-Hydroxy-3-{1-[3-(2-oxo-pyrrolidin-1-yl)-propyl]-2-phenethyl-1H-benzimidazol-5-yl}-acrylamide], the IC50 in experiment [1] (setting [3]) was determined as 195 nM; in experiment [2] (setting [4]), 724 nM.

Consider `O=C(/C=C/c1ccc2c(c1)ncn2Cc1ccccc1)NO` [Compound 35, N-Hydroxy-3-(1-Benzyl-1H-benzimidazol-5-yl}-acrylamide], for which the IC50 came to 371 nM in experiment [1] (setting [3]) and 412 nM in experiment [2] (setting [4]).

In the case of `CC(C)Cc1nc2cc(/C=C/C(=O)NO)ccc2n1CCc1ccccc1` [Compound 25, N-Hydroxy-3-(2-isobutyl-1-phenethyl-1H-benzimidazol-5-yl]-acrylamide], the IC50 in experiment [1] (setting [3]) is 1320 nM; in experiment [2] (setting [4]), 601 nM.

For `O=C(/C=C/c1ccc2c(c1)nc(CCc1ccccc1)n2CCc1cccnc1)NO` [Compound 27, N-Hydroxy-3-(2-phenethyl-1-(2-pyridin-3-yl-ethyl)-1H-benzimidazol-5-yl]-acrylamide], the IC50 was 92 nM in experiment [1] (setting [3]) and 329 nM in experiment [2] (setting [4]).
